# Measured values published in PMC6834145, “Identification of a Novel Oligosaccharide in Maple Syrup as a Potential Alternative Saccharide for Diabetes Mellitus Patients” (International Journal of Molecular Sciences, 2019).
# Key:
# [1] = target: T1, maltase (α-(1-4) glucosidase) from Saccharomyces; assay: glucose release from maltose, capillary electrophoresis of PMP derivatives; assay type: biochemical; details: substrate maltose; citric buffer pH 6.8 or acetate buffer pH 4.5 (text does not assign clearly), 15 min
# T1 construct: gene MAL12; commercial enzyme, Sigma-Aldrich Japan
# Excerpt: glucose release from maltose, capillary electrophoresis of PMP derivatives on maltase (α-(1-4) glucosidase) from Saccharomyces
# [2] = target: T2, Invertase from Candida utilis (Williopsis jadinii, UniProt O94224); assay: glucose release from sucrose, capillary electrophoresis of PMP derivatives; assay type: biochemical; details: substrate sucrose (100 µg), acetate buffer pH 4.5, 15 min
# T2 construct: gene INV1; commercial native enzyme, Seikagaku Biobusiness Corporation
# T2 sequence (O94224 1-533): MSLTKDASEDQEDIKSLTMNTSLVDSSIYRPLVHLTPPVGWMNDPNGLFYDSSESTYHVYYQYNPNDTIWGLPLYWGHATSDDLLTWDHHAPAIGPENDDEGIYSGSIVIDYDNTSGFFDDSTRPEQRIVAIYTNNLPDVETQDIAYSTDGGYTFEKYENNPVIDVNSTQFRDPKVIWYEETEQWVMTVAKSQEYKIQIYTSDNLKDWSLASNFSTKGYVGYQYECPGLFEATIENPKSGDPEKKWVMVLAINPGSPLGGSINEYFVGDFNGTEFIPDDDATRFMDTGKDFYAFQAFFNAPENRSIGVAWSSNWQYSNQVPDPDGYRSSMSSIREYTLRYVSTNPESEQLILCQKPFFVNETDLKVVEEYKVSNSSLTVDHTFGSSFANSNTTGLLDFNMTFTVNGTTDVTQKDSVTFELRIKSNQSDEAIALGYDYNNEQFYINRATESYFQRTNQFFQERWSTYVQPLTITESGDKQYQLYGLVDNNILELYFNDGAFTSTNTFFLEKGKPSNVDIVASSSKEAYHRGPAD
# Excerpt: glucose release from sucrose, capillary electrophoresis of PMP derivatives on Invertase from Candida utilis
compound,measurement,setting,value
OC[C@H]1OC(O)[C@H](O)[C@@H](O)[C@@H]1OC[C@H]1OC(O)(CO)[C@@H](O)[C@@H]1O (some centres unmarked) [maplebiose1],IC50,[1],1.72 mM
same,IC50,[2],1.17 mM
